Reference: the NIST ThermoML archive (doi:10.1021/je0340809)
Numbers after ± are expanded uncertainties.

Settings: 101.33 kPa, Liquid

mass density (298.15 K)	speed of sound (298.15 K)	mass density (308.15 K)	speed of sound (308.15 K)	viscosity (308.15 K)	mass density (318.15 K)	viscosity (318.15 K)	mass density (328.15 K)	speed of sound (328.15 K)	viscosity (328.15 K)	mass density (338.15 K)	speed of sound (338.15 K)	viscosity (338.15 K)	speed of sound (318.15 K)	Compound	viscosity (298.15 K)
1028.31 ± 0.68 kg/m3	1545.1 ± 13 m/s	1019.33 ± 0.63 kg/m3	1518.4 ± 12 m/s	1.365 ± 0.065 mPa·s	1010.11 ± 0.57 kg/m3	1.21 ± 0.058 mPa·s	1001.18 ± 0.51 kg/m3	1448.7 ± 12 m/s	1.117 ± 0.054 mPa·s	992.234 ± 0.56 kg/m3	1407.3 ± 12 m/s	0.986 ± 0.049 mPa·s	1477.8 ± 12 m/s	CN1CCCC1=O [N-methylpyrrolidone]	1.663 ± 0.078 mPa·s
1042.04 ± 0.77 kg/m3	1530.1 ± 6.3 m/s	1033.19 ± 0.71 kg/m3	1499.4 ± 6.2 m/s	2.942 ± 0.17 mPa·s	1024.38 ± 0.66 kg/m3	2.59 ± 0.15 mPa·s	1015.58 ± 0.6 kg/m3	1430.2 ± 6 m/s	2.259 ± 0.13 mPa·s	1006.77 ± 0.55 kg/m3	1403.3 ± 5.9 m/s	1.836 ± 0.11 mPa·s	1467.6 ± 6.1 m/s	C=CN1CCCC1=O [N-vinylpyrrolidone]	–
–	1498 ± 6.2 m/s	–	1519 ± 6.3 m/s	–	–	–	–	1545 ± 6.3 m/s	–	–	1551 ± 6.4 m/s	–	1535.1 ± 6.3 m/s	O [water]	–

Compound	mass density (298.15 K)	speed of sound (298.15 K)	mass density (308.15 K)	speed of sound (308.15 K)	viscosity (308.15 K)	mass density (318.15 K)	viscosity (318.15 K)	mass density (328.15 K)	speed of sound (328.15 K)	viscosity (328.15 K)	mass density (338.15 K)	speed of sound (338.15 K)	viscosity (338.15 K)	speed of sound (318.15 K)	viscosity (298.15 K)
O=C1CCCN1 [2-pyrrolidinone]	1107.02 ± 2.4 kg/m3	1633.2 ± 6.6 m/s	1099.15 ± 2.3 kg/m3	1603.1 ± 6.5 m/s	8.844 ± 0.34 mPa·s	1091.06 ± 2.2 kg/m3	6.259 ± 0.26 mPa·s	1082.87 ± 2.1 kg/m3	1549.7 ± 6.4 m/s	4.677 ± 0.2 mPa·s	1070.68 ± 1.9 kg/m3	1520.1 ± 6.3 m/s	3.451 ± 0.15 mPa·s	–	13.36 ± 0.48 mPa·s
